In the supplement of paper PMC10307832:

What was measured:
Assay in all cases: relative viability (nuclei count vs DMSO), 5 days (fraction); higher = more cells survive
[1] = compound: CN1C=C(C2=CC=CC=C21)/C=C\3/C4=C(C=CC=N4)NC3=O + CC(=O)Nc1cccc(-n2c(=O)n(C3CC3)c(=O)c3c(Nc4ccc(I)cc4F)n(C)c(=O)c(C)c32)c1 [Trametinib] (partner 0.02 µM)
Method in brief: (§1)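 Dosing by pin tool came one day after lung cancer cell lines were seeded in 1536-well plates, using either one drug or a fixed anchor-drug dose plus five library-drug doses (not always all listed) in √10 steps. After 5 days, nuclei were counted on 4× images. Relative viability is treated-well nuclei count divided by vehicle-well nuclei count, and values are medians of duplicate plates.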

[2] = compound: CN1C=C(C2=CC=CC=C21)/C=C\3/C4=C(C=CC=N4)NC3=O + COc1cccc2cc(-c3nc([C@H]4CC[C@H](C(=O)O)CC4)n4ncnc(N)c34)[nH]c12 [OSI-027] (partner 0.5 µM)
Method in brief: as §1

[3] = compound: CN1C=C(C2=CC=CC=C21)/C=C\3/C4=C(C=CC=N4)NC3=O + CS(=O)(=O)N1CCN(Cc2cc3nc(-c4cccc5[nH]ncc45)nc(N4CCOCC4)c3s2)CC1 [Pictilisib] (partner 1 µM)
Method in brief: as §1

[4] = compound: CN1C=C(C2=CC=CC=C21)/C=C\3/C4=C(C=CC=N4)NC3=O + Cc1nc(NC(=O)N2CCC[C@H]2C(N)=O)sc1-c1ccnc(C(C)(C)C(F)(F)F)c1 [Alpelisib] (partner 2 µM)
Method in brief: as §1

Cell Line	relative viability ([1]; first compound 0.02 µM)	relative viability ([1]; first compound 0.06325 µM)	relative viability ([1]; first compound 0.2 µM)	relative viability ([1]; first compound 0.6325 µM)	relative viability ([1]; first compound 2 µM)	relative viability ([2]; first compound 0.02 µM)	relative viability ([2]; first compound 0.06325 µM)	relative viability ([2]; first compound 0.2 µM)	relative viability ([2]; first compound 0.6325 µM)	relative viability ([2]; first compound 2 µM)	relative viability ([3]; first compound 0.02 µM)	relative viability ([3]; first compound 0.06325 µM)	relative viability ([3]; first compound 0.2 µM)	relative viability ([3]; first compound 0.6325 µM)	relative viability ([3]; first compound 2 µM)	relative viability ([4]; first compound 0.02 µM)	relative viability ([4]; first compound 0.06325 µM)	relative viability ([4]; first compound 0.2 µM)	relative viability ([4]; first compound 0.6325 µM)	relative viability ([4]; first compound 2 µM)
201T	0.758	0.727	0.754	0.797	0.763	0.773	0.366	0.626	0.835	0.422	0.64	0.649	0.629	0.626	0.613	0.998	1.04	1.08	1	0.913
A549											0.544	0.474	0.465	0.46	0.529	0.863	0.736	0.843	0.808	0.691
A-427	0.796	0.721		0.708	0.813	0.575	0.445		0.549	0.416	0.726	0.707		0.679	0.742	1.08	1.02		1.08	1.13
ABC-1						0.683	0.461	0.273	0.4	0.533	0.774	0.681	0.682	0.663	0.608	1.05	0.785	0.84	0.714	0.923
BEN	1.05	0.981	1	0.966	1.18	0.282	0.29		0.403	0.276	0.541	0.596	0.504	0.478	0.532	1.05	0.932	0.981	1	1.13
CAL-12T	0.32	0.308	0.315	0.325	0.298	0.628	0.47	0.525	0.645	0.53	0.556	0.394	0.26	0.447	0.326	1.47	0.924	1.1	1.16	1.06
COR-L23	0.519	0.575	0.576	0.545	0.606	0.713	0.716	0.829	0.723	0.843	0.721	0.707	0.781	0.737	0.887	0.764	0.698	0.718	0.724	0.589
COR-L 105	0.402	0.462	0.396	0.512	0.506	1.01	0.897	0.591	0.746	0.724	0.412	0.383	0.385	0.364	0.364	0.907	0.898	0.922	1.01	0.874
Calu-6											0.841	0.776	0.9	0.936	0.897	0.823	0.856	0.959	0.975	0.911
ChaGo-K-1	0.864	0.917	0.868	0.871	0.871	0.56	0.672	0.339	0.613	0.609	0.607	0.62		0.403	0.571					
EBC-1											0.242	0.256	0.283	0.287	0.309	0.727	0.776	0.894	0.823	0.784
EKVX	0.268			0.233	0.201	0.589	0.434	0.855	0.682	0.627	0.374	0.384	0.334	0.345	0.361	0.765	0.763	0.795	0.725	0.703
IA-LM											0.273	0.264		0.347	0.363	0.972	0.549	0.906	0.736	0.681
NCI-H522	0.746	0.712	0.793	0.752	0.852	0.648	0.743	0.761	0.75	0.835										
NCI-H1299											0.567	0.811	0.8	0.824	0.894	1.06	1.14	1.14	1.1	1.06
NCI-H1563						0.741	0.75	0.743	0.778	0.75	0.587	0.618	0.641	0.747	0.682	0.898	0.951	0.73	0.977	0.863
NCI-H1623						0.371	0.404	0.359	0.38	0.379										
NCI-H1648	0.691	0.543	0.42	0.532	0.482		0.239	0.259	0.258	0.281										
NCI-H1650	0.559	0.535	0.559	0.582	0.53	0.55	0.541	0.437	0.458	0.539	0.539	0.561	0.436	0.505	0.573					
NCI-H1703											0.232	0.245	0.257	0.283	0.23	0.436	0.299	0.324	0.41	0.268
NCI-H2342	0.921	0.753	0.725	0.655	0.686	0.617	0.616	0.596	0.535	0.65										
SW 900	0.763			0.676	0.799	0.601	0.49		0.6	0.703										
